# How the values were obtained:
# [1] = system: neurofilament light protein (NFL); experiment: Serum NFL quantification (Simoa NF-Light), murine heart failure model (Example 1); type: in vivo, mouse; details: 50 μg/kg/day and 500 μg/kg/day, relative to HF-saline
# Method: Male C57Bl/6J adult mice (Harlan, 8-10 weeks old) were randomly assigned to either the sham control (n=12) or heart failure (HF) group (n=44). All mice prior to surgery were weighed and anesthetized. For the HF mice, myocardial infarction (MI) was induced by ligation of the left coronary artery (LCA). Under anesthesia (2.5% isoflurane in a mixture of air and 02) a thoracotomy was performed at the fourth left intercostal space and the LCA permanently ligated to induce a myocardial infarction (MI). Occlusion of the LCA was confirmed by observing blanching, a slight change in color of the anterior wall of the left ventricle downstream of the ligature. Sham mice underwent the same procedure with the exception of ligating the LCA.
# Following 5 weeks post MI surgery, mice were treated for […] with daily subcutaneous injections as follows:
# NFL Quantification: Immediately following the final NOR test, mice were sacrificed and serum samples were obtained for NFL quantification using the Simoa™ NF-Light® kit (Quanterix Cat #103186, Lot #501953), which quantifies neurofilament light (NFL). Assay samples were diluted 1:4 and calibrators were undiluted. As samples and calibrators were run in duplicate and analyzed using the HD-X Analyzer software package.
# [2] = system: neurofilament light protein (NFL); experiment: Serum NFL levels in patients undergoing coronary artery bypass grafting (CABG); type: in vivo, human; details: 200 μg/kg/day s.c. for 21 days, vs saline vehicle
# Excerpt: It is well documented that patients undergoing coronary artery bypass grafting (CABG) tend to experience post-surgical cognitive dysfunction. The present study elucidates the response in serum NFL levels to CABG and how that response may be modulated by Ang-(1-7) treatment. Potential CABG participants underwent a screening visit between 2 and 15 days prior to CABG surgery, including a full medical history and physical examination to rule out dementia (Mini-Mental State Exam score less than 25), and depression (Geriatric Depression Scale score greater than 10). Between 1 and 15 days prior to CABG surgery, participants underwent neuropsychological evaluation including memory testing and blood draws for clinical pathology assessment, NFL biomarker assessment. […] At 21 days post-surgery, additional blood samples were obtained, and serum NFL levels were measured.
# The serum NFL concentration was measure in six subjects prior to CABG surgery and in 18 age-matched control subjects. […] Two subjects were administered saline vehicle control. […] Following surgery, serum NFL levels increased about four-fold in the patients treated with saline vehicle compared to pre-surgery level (p=0.0002).
# [3] = system: brain cytokines; experiment: Whole brain lysate cytokines, MILLIPLEX MAP Mouse High Sensitivity Multiplex Immunoassay; type: in vivo
# Method: Mice were assigned randomly to the following treatment groups: Control-Saline (sham MI surgery, treated with saline), HF-treated (HF-PNA5, or HF-Ang-(1-7) with either 50 μg/kg/day, or 500 μg/kg/day), or HF-saline. Mice recovered for 5 weeks following MI before receiving 24 days of daily subcutaneous drug treatment. Within the last 3 days of injections, animals underwent Novel Object Recognition (NOR) testing (FIG. 6). Animal treatment groups were as listed: heart failure (HF)-saline treated n=15, (HF-Saline), Sham surgery-saline treated n=15 (Control-Saline), HF-Ang-(1-7) at 500 μg/kilogram body weight/day for 24 days (HF-A500) n=15, HF-Ang-(1-7) at 50 μg/kg body weight/day for 24 days (HF-A50) n=15, HF-PNA5 at 500 μg/kilogram body weight/day (HF-P500) n=15, HF-PNA5 at 50 μg/kilogram body weight/day (HF-P50) n=15. Following MI, up to 7 mice died within a group resulting in varying number of mice per group that were available to undergo treatment, NOR testing, and provide serum samples.
# Mice were anesthetized with isoflurane and rapidly decapitated. Brains were separated from the skull and quickly cut into two hemispheres. The halves of the brain were then rapidly frozen in corning tubes in liquid nitrogen and stored at −80° C. One half of each brain was lysed using 1 mL RIPA buffer (1% Triton X-100, 0.1% SDS, 1×PBS) with protease (protease inhibitor cocktail 100× [Sigma P8340]) and phosphatase inhibitors (phosphatase inhibitor cocktail 100× [Sigma P5726]). Tissue was then sonicated using an ultrasonic cell disruptor at 30% 40% amplitude for 1 min. Samples were returned to ice in between sonication to prevent the tissue from warming. Samples were then centrifuged at 4° C. or 15 min at 13,000×g. The supernatant was collected and stored at −80° C. Total protein was measured in the range of […]. Brain lysates were used for multiplex immunoassays.
# Cytokine concentrations were measured in the brain lysates and plasma samples by multiplex immunoassay using a MAGPIX Multiplexing Instrument and accompanying Multiplex Analyst software (MILLIPLEX MAP Mouse Cytokine/Chemokine Magnetic Bead Panel-Immunology Multiplex Assay; MCYTOMAG-70 K; Millipore Sigma, Burlington, Massachusetts). Simultaneous measurements of granulocyte colony-stimulating factor (GCSF), granulocyte-macrophage colony-stimulating factor, interferon, interleukin (IL)-1a, IL-1B, IL-2, IL-4, IL-5, IL-6, IL-7, IL-9, IL-10, IL-12 (p40), IL-12 (p70), IL-13, IL-15, IL-17, interferon-induced protein 10, chemokine (C-X-C motif) (CXC) ligand 1 (KC), chemokine (C-C motif) ligand (CCL) 2 (monocyte chemoattractant protein-1), CCL3 [macrophage inflammatory protein (MIP) 1a], CCL4 (MIP1b), CXC ligand 2 (MIP2), CCL5 [RANTES (regulated on activation normal T cell expressed and secreted)], and tumor necrosis factor-alpha (TNF-α) were captured. All samples were run in duplicate, and the results were analyzed using ANOVA and relevant post using GraphPad Prism9. To create a composite cytokine score, we calculated the z-scores for IL-2, IL-13, and IL-17 brain cytokines. Z-scores were then added to create a composite cytokine score. The z-score was calculated for each cytokine using the following equation: […]
# [4] = system: TNFα; experiment: Plasma cytokines, MILLIPLEX MAP Mouse High Sensitivity Multiplex Immunoassay; type: in vivo; details: 50 μg/kg/day; values at or below assay threshold represented as 3.12
# Method: Mice were assigned randomly to the following treatment groups: Control-Saline (sham MI surgery, treated with saline), HF-treated (HF-PNA5, or HF-Ang-(1-7) with either 50 μg/kg/day, or 500 μg/kg/day), or HF-saline. Mice recovered for 5 weeks following MI before receiving 24 days of daily subcutaneous drug treatment. Within the last 3 days of injections, animals underwent Novel Object Recognition (NOR) testing (FIG. 6). […]
# Cytokine concentrations were measured in the brain lysates and plasma samples by multiplex immunoassay using a MAGPIX Multiplexing Instrument and accompanying Multiplex Analyst software (MILLIPLEX MAP Mouse Cytokine/Chemokine Magnetic Bead Panel-Immunology Multiplex Assay; MCYTOMAG-70 K; Millipore Sigma, Burlington, Massachusetts). […] All samples were run in duplicate, and the results were analyzed using ANOVA and relevant post using GraphPad Prism9. To create a composite cytokine score, we calculated the z-scores for IL-2, IL-13, and IL-17 brain cytokines. […] The z-score was calculated for each cytokine using the following equation: […]
substance,measurement,setting,value
"DRVYIHP [Ang-(1-7), Asp-Arg-Val-Tyr-Ile-His-Pro, Mas receptor agonist]",HF-induced increase in serum NFL levels,[1],reversed
same,post-surgical increase in serum NFL,[2],significantly reduced that post-surgical increase
same,"brain IL-1α, mean ± SE",[3]; 50 ug/kg,95.6 ± 8.4 pg/mL
same,"brain IL-10 (row head as printed; title says IP-10), mean ± SE",[3]; 50 ug/kg,42.2 ± 3.2 pg/mL
same,"brain IL-17, mean ± SE",[3]; 50 ug/kg,44.1 ± 2.8 pg/mL
same,"brain IL-1α, mean ± SE",[3]; 500 ug/kg,95.6 ± 5.5 pg/mL
same,"brain IL-2, mean ± SE",[3]; 500 ug/kg,50.9 ± 1.9 pg/mL
same,"brain IL-5, mean ± SE",[3]; 500 ug/kg,53.2 ± 2.7 pg/mL
same,"brain IL-10 (row head as printed; title says IP-10), mean ± SE",[3]; 500 ug/kg,43.8 ± 4.2 pg/mL
same,"brain IL-17, mean ± SE",[3]; 500 ug/kg,42.0 ± 1.1 pg/mL
same,"brain lysate levels of IL-1α, IL-2, IL-5, IL-13, and IL-17 compared to HF-Saline",[3]; A50 or A500 (50 or 500 ug/kg),significantly increased
same,"plasma TNFα, mean",[4],3.12 pg/mL
